By Kd is commonly meant a measure of binding affinity in units of concentration.

Kd data for 13 compounds are collected here from ChEMBL document CHEMBL3991601, “The target landscape of clinical kinase drugs” (Science, 2017).

The target of assay [1] is Serine/threonine-protein kinase MRCK gamma (Homo sapiens, UniProt Q6DT37).
In assay [2] the target is T1, Beta-adrenergic receptor kinase 1 (Homo sapiens, UniProt P25098).
T1 sequence (P25098 whole entry): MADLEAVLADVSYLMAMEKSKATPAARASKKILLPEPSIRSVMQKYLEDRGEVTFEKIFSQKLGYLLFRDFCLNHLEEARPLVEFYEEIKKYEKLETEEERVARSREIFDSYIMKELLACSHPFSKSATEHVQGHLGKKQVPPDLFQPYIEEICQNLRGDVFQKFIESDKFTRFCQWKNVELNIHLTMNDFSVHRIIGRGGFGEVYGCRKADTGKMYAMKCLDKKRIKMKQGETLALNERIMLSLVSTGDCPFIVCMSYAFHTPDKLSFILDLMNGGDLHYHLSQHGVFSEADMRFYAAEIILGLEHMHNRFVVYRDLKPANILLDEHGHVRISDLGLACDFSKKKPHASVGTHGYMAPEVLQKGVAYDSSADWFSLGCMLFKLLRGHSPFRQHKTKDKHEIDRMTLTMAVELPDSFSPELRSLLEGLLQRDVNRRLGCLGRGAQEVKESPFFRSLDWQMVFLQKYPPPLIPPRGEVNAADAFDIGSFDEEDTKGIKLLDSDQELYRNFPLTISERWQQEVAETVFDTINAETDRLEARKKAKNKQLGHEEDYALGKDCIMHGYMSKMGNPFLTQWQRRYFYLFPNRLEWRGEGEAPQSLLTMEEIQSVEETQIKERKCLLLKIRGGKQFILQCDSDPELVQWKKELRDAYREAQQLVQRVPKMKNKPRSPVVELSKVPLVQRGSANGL

In assay [3] the target is T2, Tyrosine--tRNA ligase, cytoplasmic (Homo sapiens, UniProt P54577).
T2 sequence (P54577 whole entry): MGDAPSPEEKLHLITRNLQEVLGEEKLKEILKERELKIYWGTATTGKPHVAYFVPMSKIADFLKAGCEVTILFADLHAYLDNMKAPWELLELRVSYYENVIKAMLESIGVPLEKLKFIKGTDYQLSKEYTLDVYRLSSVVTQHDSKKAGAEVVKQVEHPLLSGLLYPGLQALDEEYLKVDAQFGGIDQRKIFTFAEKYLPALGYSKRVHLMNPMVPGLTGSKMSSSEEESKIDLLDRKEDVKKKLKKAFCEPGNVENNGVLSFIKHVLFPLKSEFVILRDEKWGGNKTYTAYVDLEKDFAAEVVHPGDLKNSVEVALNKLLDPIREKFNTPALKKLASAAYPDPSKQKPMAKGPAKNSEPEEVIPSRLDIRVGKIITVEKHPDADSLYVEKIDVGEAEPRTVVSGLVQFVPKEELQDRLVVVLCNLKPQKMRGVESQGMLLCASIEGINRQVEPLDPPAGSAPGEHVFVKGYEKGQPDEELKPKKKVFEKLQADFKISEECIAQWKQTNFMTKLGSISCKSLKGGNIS

The target in assay [4] is T3, cGMP-dependent protein kinase 1 (Homo sapiens, UniProt Q13976).
T3 sequence (Q13976 whole entry): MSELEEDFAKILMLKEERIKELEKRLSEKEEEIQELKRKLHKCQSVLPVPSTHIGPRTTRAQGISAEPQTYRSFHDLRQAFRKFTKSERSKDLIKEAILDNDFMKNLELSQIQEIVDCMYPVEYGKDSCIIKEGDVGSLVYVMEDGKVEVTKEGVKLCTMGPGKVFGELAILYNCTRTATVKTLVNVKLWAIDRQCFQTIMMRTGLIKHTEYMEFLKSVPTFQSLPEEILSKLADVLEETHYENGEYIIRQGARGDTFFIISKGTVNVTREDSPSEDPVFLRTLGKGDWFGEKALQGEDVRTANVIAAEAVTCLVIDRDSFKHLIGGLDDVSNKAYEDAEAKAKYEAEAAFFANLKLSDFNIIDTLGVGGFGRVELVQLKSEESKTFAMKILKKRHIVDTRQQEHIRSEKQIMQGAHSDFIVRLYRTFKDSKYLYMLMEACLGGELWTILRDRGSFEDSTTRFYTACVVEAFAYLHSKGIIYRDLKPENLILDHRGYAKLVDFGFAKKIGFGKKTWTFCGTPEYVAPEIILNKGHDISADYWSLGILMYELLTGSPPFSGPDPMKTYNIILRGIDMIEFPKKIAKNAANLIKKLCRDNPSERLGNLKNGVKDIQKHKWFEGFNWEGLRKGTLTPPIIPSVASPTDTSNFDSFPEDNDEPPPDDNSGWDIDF

The target in assay [5] is Atypical kinase COQ8A, mitochondrial (Homo sapiens, UniProt Q8NI60).
In assay [6] the target is Myosin light chain kinase, smooth muscle (Homo sapiens, UniProt Q15746).
In assay [7] the target is Ras-related protein Rab-6A (Homo sapiens, UniProt P20340).
Assay [8] addresses Aurora kinase B (Homo sapiens, UniProt Q96GD4).
Assay [9] concerns the target Cyclin-dependent kinase 3 (Homo sapiens, UniProt Q00526).
Assay [10] concerns the target Fibroblast growth factor receptor 1 (Homo sapiens, UniProt P11362).

The structures appear in SMILES notation. Activity calls are given as the source filed them.
Note: in the data inactive means no Kd found up to 30 µM.

Fibroblast growth factor receptor 1, sequence (P11362 whole entry): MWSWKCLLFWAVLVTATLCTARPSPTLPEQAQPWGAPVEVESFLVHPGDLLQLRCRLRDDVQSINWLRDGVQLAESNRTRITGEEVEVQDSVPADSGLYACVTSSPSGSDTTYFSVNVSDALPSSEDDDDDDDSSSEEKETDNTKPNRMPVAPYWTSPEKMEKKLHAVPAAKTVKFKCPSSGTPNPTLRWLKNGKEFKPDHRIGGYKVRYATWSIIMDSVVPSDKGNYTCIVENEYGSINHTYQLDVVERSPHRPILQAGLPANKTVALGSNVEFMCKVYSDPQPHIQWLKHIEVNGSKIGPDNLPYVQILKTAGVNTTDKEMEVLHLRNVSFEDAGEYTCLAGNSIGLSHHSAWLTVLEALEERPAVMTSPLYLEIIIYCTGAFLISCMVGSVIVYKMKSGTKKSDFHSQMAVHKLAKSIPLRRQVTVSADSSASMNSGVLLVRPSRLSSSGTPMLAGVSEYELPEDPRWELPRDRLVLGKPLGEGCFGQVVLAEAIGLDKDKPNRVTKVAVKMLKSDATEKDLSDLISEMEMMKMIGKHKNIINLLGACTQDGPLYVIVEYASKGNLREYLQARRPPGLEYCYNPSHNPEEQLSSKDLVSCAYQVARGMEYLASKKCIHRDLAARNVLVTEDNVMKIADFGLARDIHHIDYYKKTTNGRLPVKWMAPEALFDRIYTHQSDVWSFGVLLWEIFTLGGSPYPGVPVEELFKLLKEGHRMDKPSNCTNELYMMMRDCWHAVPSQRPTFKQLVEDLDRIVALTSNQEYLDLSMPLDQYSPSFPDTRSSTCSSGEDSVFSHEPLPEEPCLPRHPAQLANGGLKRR
Serine/threonine-protein kinase MRCK gamma, sequence (Q6DT37 whole entry): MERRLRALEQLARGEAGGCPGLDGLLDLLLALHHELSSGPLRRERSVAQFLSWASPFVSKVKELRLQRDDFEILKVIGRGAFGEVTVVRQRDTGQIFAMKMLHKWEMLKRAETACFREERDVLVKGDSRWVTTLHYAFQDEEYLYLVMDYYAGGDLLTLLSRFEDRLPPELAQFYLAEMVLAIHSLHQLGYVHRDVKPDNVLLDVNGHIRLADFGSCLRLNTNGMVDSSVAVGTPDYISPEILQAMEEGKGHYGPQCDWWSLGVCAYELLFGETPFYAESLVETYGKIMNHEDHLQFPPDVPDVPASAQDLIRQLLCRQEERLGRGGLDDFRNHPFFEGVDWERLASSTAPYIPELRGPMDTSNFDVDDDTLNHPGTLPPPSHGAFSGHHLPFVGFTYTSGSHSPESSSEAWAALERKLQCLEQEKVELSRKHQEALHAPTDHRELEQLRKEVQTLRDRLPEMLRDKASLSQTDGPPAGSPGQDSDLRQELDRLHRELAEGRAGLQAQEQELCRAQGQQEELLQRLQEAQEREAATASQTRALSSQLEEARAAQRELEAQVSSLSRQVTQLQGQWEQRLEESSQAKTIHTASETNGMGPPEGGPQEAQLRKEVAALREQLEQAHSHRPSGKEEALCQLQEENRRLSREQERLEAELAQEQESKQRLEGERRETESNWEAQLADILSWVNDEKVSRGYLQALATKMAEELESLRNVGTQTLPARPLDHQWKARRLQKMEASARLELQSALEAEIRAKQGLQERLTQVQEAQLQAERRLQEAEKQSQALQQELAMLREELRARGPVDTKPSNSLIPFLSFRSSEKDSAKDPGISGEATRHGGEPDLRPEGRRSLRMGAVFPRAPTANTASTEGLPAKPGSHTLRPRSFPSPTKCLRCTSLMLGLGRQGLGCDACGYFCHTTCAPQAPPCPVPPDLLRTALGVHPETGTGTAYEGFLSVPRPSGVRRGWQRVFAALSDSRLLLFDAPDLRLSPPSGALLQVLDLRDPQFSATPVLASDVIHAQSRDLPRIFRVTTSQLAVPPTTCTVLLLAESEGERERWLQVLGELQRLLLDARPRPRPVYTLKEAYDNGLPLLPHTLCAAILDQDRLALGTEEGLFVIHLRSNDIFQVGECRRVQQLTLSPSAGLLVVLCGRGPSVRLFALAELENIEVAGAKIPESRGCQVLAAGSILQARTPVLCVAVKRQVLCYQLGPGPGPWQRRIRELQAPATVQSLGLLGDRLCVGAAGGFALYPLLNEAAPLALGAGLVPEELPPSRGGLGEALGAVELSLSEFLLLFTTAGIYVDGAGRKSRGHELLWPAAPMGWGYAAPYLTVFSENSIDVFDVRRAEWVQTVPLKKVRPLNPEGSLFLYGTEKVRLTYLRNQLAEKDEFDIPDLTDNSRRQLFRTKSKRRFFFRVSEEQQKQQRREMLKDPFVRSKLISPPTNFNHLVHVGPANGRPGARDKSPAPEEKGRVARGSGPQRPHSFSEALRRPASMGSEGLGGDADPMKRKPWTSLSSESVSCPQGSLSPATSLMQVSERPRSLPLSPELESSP
Myosin light chain kinase, smooth muscle, sequence (Q15746 whole entry): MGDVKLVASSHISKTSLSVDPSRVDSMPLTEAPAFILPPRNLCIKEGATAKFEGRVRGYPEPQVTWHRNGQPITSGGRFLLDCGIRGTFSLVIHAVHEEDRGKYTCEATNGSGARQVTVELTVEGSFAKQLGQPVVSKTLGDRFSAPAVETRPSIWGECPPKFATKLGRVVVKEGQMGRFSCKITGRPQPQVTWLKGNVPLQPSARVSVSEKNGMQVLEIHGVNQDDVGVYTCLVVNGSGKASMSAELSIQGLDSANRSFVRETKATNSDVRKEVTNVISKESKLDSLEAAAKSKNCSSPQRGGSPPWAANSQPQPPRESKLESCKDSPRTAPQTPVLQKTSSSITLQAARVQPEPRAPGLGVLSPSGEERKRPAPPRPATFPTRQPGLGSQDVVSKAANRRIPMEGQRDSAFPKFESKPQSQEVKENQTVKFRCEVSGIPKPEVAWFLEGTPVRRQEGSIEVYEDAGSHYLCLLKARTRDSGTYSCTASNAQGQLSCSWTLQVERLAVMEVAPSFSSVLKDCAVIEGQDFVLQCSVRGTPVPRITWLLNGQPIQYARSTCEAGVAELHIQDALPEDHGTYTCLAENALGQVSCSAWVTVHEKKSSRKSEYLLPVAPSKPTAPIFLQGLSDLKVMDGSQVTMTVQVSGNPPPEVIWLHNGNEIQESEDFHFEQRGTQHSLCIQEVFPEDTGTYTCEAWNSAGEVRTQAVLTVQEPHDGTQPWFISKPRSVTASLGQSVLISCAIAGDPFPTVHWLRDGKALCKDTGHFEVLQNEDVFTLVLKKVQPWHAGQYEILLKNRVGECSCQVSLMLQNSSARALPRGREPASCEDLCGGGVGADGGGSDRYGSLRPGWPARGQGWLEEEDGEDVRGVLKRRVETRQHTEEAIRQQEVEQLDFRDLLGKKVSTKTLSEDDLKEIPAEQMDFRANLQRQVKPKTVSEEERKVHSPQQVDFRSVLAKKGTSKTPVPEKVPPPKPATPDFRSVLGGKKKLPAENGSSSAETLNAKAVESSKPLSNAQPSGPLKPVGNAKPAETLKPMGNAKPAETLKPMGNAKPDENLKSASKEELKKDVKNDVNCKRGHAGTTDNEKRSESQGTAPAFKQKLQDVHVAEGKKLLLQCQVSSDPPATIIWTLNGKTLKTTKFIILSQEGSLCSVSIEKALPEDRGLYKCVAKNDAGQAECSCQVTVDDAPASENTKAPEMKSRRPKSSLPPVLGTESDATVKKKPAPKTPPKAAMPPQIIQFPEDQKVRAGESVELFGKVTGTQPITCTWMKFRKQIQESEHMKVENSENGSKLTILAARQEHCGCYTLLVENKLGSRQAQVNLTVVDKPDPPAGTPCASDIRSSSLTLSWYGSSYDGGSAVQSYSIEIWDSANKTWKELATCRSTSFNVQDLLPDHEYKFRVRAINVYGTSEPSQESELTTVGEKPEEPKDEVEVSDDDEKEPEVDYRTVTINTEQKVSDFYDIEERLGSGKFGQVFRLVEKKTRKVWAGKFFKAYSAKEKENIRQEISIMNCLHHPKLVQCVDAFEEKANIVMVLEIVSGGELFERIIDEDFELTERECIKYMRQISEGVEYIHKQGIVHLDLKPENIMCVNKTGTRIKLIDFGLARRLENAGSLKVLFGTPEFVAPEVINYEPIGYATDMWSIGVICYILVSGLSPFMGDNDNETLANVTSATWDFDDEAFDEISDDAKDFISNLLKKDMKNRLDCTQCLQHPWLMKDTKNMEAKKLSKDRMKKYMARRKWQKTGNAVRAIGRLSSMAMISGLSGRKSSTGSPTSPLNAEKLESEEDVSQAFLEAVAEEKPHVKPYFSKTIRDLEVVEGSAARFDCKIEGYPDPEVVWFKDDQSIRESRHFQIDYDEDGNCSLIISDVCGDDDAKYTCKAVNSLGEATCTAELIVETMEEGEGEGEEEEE
Cyclin-dependent kinase 3, sequence (Q00526 whole entry): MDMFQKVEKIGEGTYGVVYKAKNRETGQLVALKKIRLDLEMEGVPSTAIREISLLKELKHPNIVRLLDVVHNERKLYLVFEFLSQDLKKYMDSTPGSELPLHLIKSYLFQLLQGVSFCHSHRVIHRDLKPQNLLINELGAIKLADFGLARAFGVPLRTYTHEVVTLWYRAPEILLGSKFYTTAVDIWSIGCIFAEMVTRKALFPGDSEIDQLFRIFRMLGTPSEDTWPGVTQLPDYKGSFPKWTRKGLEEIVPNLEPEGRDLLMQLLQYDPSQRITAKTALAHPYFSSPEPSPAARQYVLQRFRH
Ras-related protein Rab-6A, sequence (P20340 whole entry): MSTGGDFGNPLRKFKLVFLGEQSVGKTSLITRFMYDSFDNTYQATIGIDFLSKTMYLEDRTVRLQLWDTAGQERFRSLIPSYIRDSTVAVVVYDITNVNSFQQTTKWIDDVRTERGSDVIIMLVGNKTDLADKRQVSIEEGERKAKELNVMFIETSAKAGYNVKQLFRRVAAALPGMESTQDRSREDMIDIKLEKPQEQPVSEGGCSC

Consider `O=C(NOC[C@H](O)CO)c1ccc(F)c(F)c1Nc1ccc(I)cc1F` [MIRDAMETINIB], for which the Kd in [1], in [2], in [3], in assay [4], in [5] and in [6] was > 30 µM (inactive) each time. The Kd in assay [7], in assay [8], in assay [9] and in [10] was > 30 µM (inactive) each time.

As for `Cc1cc(Nc2nc(N[C@@H](C)c3ncc(F)cn3)ncc2Cl)n[nH]1` [AZD-1480], the Kd in [1], in [2], in [3], in assay [4], in assay [5] and in assay [6] was > 30 µM (inactive) throughout. Further, the Kd in [7] is > 30 µM (inactive); in [8], 1.56 µM (active); in assay [9], 0.942 µM; in [10], 0.777 µM (active).

As to `C=CCN(/C=C1/C(=O)O[C@H](COC)[C@@]2(C)C1=C(O)C(=O)C1=C2[C@H](OC(C)=O)C[C@]2(C)C(=O)CC[C@@H]12)CC=C` [SONOLISIB], the Kd in [2], in assay [4], in assay [5], in assay [6], in assay [8] and in [9] was > 30 µM (inactive) in each case. For the same compound, the Kd in assay [10] was > 30 µM (inactive).

`O=c1[nH]c([C@@H]2CCCN2)nc2c1oc1ccc(Cl)cc12`: the Kd in [1], in [2], in assay [3], in assay [4], in [5] and in [6] was > 30 µM (inactive) each time. Further, the Kd in [8], in assay [9] and in assay [10] was > 30 µM (inactive) throughout.

For the compound `CCN1CCN(Cc2ccc(Nc3ncc(F)c(-c4cc(F)c5nc(C)n(C(C)C)c5c4)n3)nc2)CC1` [ABEMACICLIB], the Kd in assay [1], in assay [2], in [3], in [4], in [5] and in [6] was > 30 µM (inactive) in each case. Besides, the Kd in assay [7], in assay [8] and in assay [10] was > 30 µM (inactive) in each case.

On to `COc1ccc(-c2ccc3ncc4c(c3c2)n(-c2ccc(N3CCNCC3)c(C(F)(F)F)c2)c(=O)n4C)cn1` [BGT-226 FREE BASE], for which the Kd in assay [1], in [2], in [3], in [4], in assay [5] and in assay [6] was > 30 µM (inactive) in each case. In addition, the Kd in assay [7], in [8], in assay [9] and in [10] was > 30 µM (inactive) each time.

Regarding `CCc1cc2c(cc1N1CCC(N3CCOCC3)CC1)C(C)(C)c1[nH]c3cc(C#N)ccc3c1C2=O` [ALECTINIB], the Kd in assay [1], in assay [2], in assay [3], in assay [4], in [5] and in assay [6] was > 30 µM (inactive) throughout. The Kd in [7], in assay [8], in assay [9] and in assay [10] was > 30 µM (inactive) each time.

Take `Cn1c(=O)c(F)c(Nc2ccc(I)cc2F)c2c(=O)n(C[C@@H](O)CO)cnc21` [TAK-733]: the Kd in assay [1], in assay [2], in [3], in assay [4], in assay [5] and in assay [6] was > 30 µM (inactive) throughout. The Kd in assay [7], in assay [8], in assay [9] and in assay [10] was > 30 µM (inactive) in each case.

Take `CC(C)CC(=O)Nc1[nH]nc2c1CN(C(=O)C1CCN(C)CC1)C2(C)C` [PHA-793887]: the Kd in assay [1], in assay [2], in [3], in assay [5], in [6] and in assay [7] was > 30 µM (inactive) in each case. Further, the Kd in assay [8] was > 30 µM (inactive); in assay [9] it was 0.008 µM (active); in [10] it was > 30 µM (inactive).

Consider `Cc1ccc(C(=O)Nc2ccc(Oc3cc4cnn(C)c4cc3-c3cn[nH]c3)c(F)c2)c(=O)n1-c1ccc(F)cc1` [MERESTINIB], for which the Kd in assay [1], in [2], in assay [3], in [4], in assay [5] and in assay [6] was > 30 µM (inactive) throughout. Further, the Kd in [7], in assay [8], in [9] and in [10] was > 30 µM (inactive) in each case.

Consider `C[C@@]1(C(=O)Nc2ccc(F)nc2)CCCN1c1nc(Nc2cc(C3CC3)n[nH]2)c2cccn2n1` [BMS-754807], for which the Kd in assay [3] and in [7] was > 30 µM (inactive) throughout.

For the compound `O=C(O)c1ccc2c(c1)nc(Nc1cccc(Cl)c1)c1ccncc12` [SILMITASERTIB], the Kd in [1], in assay [2], in [3], in assay [4], in assay [5] and in assay [6] was > 30 µM (inactive) each time. For the same compound, the Kd in assay [7], in assay [9] and in [10] was > 30 µM (inactive) throughout.

In the case of `C[C@]1(O)C[C@@H](c2nc(-c3ccc4ccc(-c5ccccc5)nc4c3)c3c(N)nccn32)C1` [LINSITINIB], the Kd in [1], in assay [2], in [3], in assay [5], in [6] and in assay [7] was > 30 µM (inactive) throughout. Also, in assay [9], the Kd was > 30 µM (inactive).
